Read-outs that look alike come from different tables or passages of the source.
How the values were obtained:
[1] = Stability experiments under 40° C.±2° C. and 75% R.H±5% R.H (accelerated test); type: physicochemical; conditions: 40° C./75% R.H
[2] = Stability experiments under 25° C.±2° C. and 65% R.H±5% R.H; conditions: 25° C./65% R.H
Text: • 1. […] The results are shown in detail in the following table.

[3] = Hygroscopicity study (Chinese Pharmacopoeia 2015, 9103); type: physicochemical; conditions: for Hygroscopic weight gain: 25° C.±1° C., saturated ammonium chloride solution, 24 hours
Method: Test method: • 1. A dried glass weighing bottle with stopper (having an outer diameter of 50 mm and a height of 15 mm) was placed in a thermostatic drier (a saturated ammonium chloride solution was placed on the lower part of the thermostatic drier) at an appropriate temperature of 25° C.±1° C. on the day earlier before the test, and the weight (m1) of weighing bottle was precisely weighed. • 2. An appropriate amount of test sample was taken and spread in the weighing bottle, and the thickness of the test sample was controlled to about 1 mm, and the weight (m2) was precisely weighed. • 3. The weighing bottle was opened and was placed, together with the bottle cap, under the above mentioned constant temperature and humidity condition for 24 hours. • 4. The weighing bottle was capped and precisely weighed to obtain the weight (m3).
Description of hygroscopicity characterization and delimitation of hygroscopicity weight gain: Deliquescence: enough moisture is absorbed to form a liquid. […] Slightly hygroscopic: hygroscopic weight gain is less than 2% but not less than 0.2%. Not or hardly hygroscopic: hygroscopic weight gain is less than 0.2%.

[4] = day 5, High temperature of 40° C.
[5] = day 10, High temperature of 40° C.

Q: With `CC[C@@H]([C@H](C)OP(=O)([O-])[O-])n1ncn(-c2ccc(N3CCN(c4ccc(OC[C@@H]5CO[C@@](Cn6cncn6)(c6ccc(F)cc6F)C5)cc4)CC3)cc2)c1=O.O.O.O.O.O.[Na+].[Na+]` [Comparative Example 9, Posaconazole Phosphate Disodium Salt Pentahydrate] as the molecule, how does the Content ([1]; month 0) read?
A: 99.87%

Q: What about the Description ([1]; month 0) of the same molecule?
A: White

Q: And the Related substance ([1]; month 0)?
A: 0.13%

Q: And the Content ([1]; month 1)?
A: 99.72%

Q: What about the Description ([1]; month 1) of the same molecule?
A: White

Q: What about the Related substance ([1]; month 1) of the same molecule?
A: 0.28%

Q: And the Content ([1]; month 2)?
A: 99.62%

Q: And the Description ([1]; month 2)?
A: White

Q: What about the Related substance ([1]; month 2) of the same molecule?
A: 0.38%

Q: And the Content ([1]; month 3)?
A: 99.45%

Q: What about the Description ([1]; month 3) of the same molecule?
A: White

Q: And the Related substance ([1]; month 3)?
A: 0.55%

Q: What about the Content ([1]; month 6) of the same molecule?
A: 99.32%

Q: What about the Description ([1]; month 6) of the same molecule?
A: White

Q: What about the Related substance ([1]; month 6) of the same molecule?
A: 0.68%

Q: What about the Content ([2]; month 0) of the same molecule?
A: 99.87%

Q: What about the Description ([2]; month 0) of the same molecule?
A: White

Q: What about the Related substance ([2]; month 0) of the same molecule?
A: 0.13%

Q: And the Content ([2]; month 3)?
A: 99.73%

Q: What about the Description ([2]; month 3) of the same molecule?
A: White

Q: What about the Related substance ([2]; month 3) of the same molecule?
A: 0.27%

Q: And the Content ([2]; month 6)?
A: 99.68%

Q: And the Description ([2]; month 6)?
A: White

Q: And the Related substance ([2]; month 6)?
A: 0.32%

Q: And the Content ([2]; month 9)?
A: 99.51%

Q: What about the Description ([2]; month 9) of the same molecule?
A: White

Q: And the Related substance ([2]; month 9)?
A: 0.49%

Q: And the Content ([2]; month 12)?
A: 99.41%

Q: And the Description ([2]; month 12)?
A: White

Q: What about the Related substance ([2]; month 12) of the same molecule?
A: 0.59%

Q: What about the Content ([2]; month 24) of the same molecule?
A: 98.87%

Q: And the Description ([2]; month 24)?
A: White

Q: What about the Related substance ([2]; month 24) of the same molecule?
A: 1.13%

Q: What about the Hygroscopic weight gain [3] of the same molecule?
A: 12.01%

Q: With `CC[C@@H]([C@H](C)OP(=O)(O)O)n1ncn(-c2ccc(N3CCN(c4ccc(OC[C@@H]5CO[C@@](Cn6cncn6)(c6ccc(F)cc6F)C5)cc4)CC3)cc2)c1=O` [Example 3, Posaconazole Phosphate Monocholinate Pentahydrate] as the molecule, how does the Content ([1]; month 0) read?
A: 99.87%

Q: What about the Description ([1]; month 0) of the same molecule?
A: White

Q: What about the Related substance ([1]; month 0) of the same molecule?
A: 0.13%

Q: What about the Content ([1]; month 1) of the same molecule?
A: 99.87%

Q: And the Description ([1]; month 1)?
A: White

Q: And the Related substance ([1]; month 1)?
A: 0.13%

Q: And the Content ([1]; month 2)?
A: 99.87%

Q: And the Description ([1]; month 2)?
A: White

Q: What about the Related substance ([1]; month 2) of the same molecule?
A: 0.13%

Q: What about the Content ([1]; month 3) of the same molecule?
A: 99.86%

Q: What about the Description ([1]; month 3) of the same molecule?
A: White

Q: What about the Related substance ([1]; month 3) of the same molecule?
A: 0.14%

Q: And the Content ([1]; month 6)?
A: 99.85%

Q: What about the Description ([1]; month 6) of the same molecule?
A: White

Q: And the Related substance ([1]; month 6)?
A: 0.15%

Q: What about the Content ([2]; month 0) of the same molecule?
A: 99.37%

Q: What about the Description ([2]; month 0) of the same molecule?
A: White

Q: And the Related substance ([2]; month 0)?
A: 0.13%

Q: And the Content ([2]; month 3)?
A: 99.87%

Q: What about the Description ([2]; month 3) of the same molecule?
A: White

Q: And the Related substance ([2]; month 3)?
A: 0.13%

Q: And the Content ([2]; month 6)?
A: 99.87%

Q: What about the Description ([2]; month 6) of the same molecule?
A: White

Q: What about the Related substance ([2]; month 6) of the same molecule?
A: 0.13%

Q: And the Content ([2]; month 9)?
A: 99.84%

Q: And the Description ([2]; month 9)?
A: White

Q: What about the Related substance ([2]; month 9) of the same molecule?
A: 0.16%

Q: What about the Content ([2]; month 12) of the same molecule?
A: 99.84%

Q: And the Description ([2]; month 12)?
A: White

Q: What about the Related substance ([2]; month 12) of the same molecule?
A: 0.16%

Q: And the Content ([2]; month 24)?
A: 99.79%

Q: What about the Description ([2]; month 24) of the same molecule?
A: White

Q: And the Related substance ([2]; month 24)?
A: 0.21%

Q: And the Hygroscopic weight gain [3]?
A: 0.15%

Q: And the “Conclusion (hygroscopicity)” value ([3]; after 24 hours)?
A: No hygroscopicity

Q: What about the Content (day 0) of the same molecule?
A: 99.87%

Q: And the Description (day 0)?
A: White

Q: What about the Related substance (day 0) of the same molecule?
A: 0.13%

Q: What about the Content (day 5, High humidity of 92.5%) of the same molecule?
A: 99.86%

Q: What about the Description (day 5, High humidity of 92.5%) of the same molecule?
A: White

Q: And the Related substance (day 5, High humidity of 92.5%)?
A: 0.14%

Q: And the Content [4]?
A: 99.87%

Q: And the Description [4]?
A: White

Q: What about the Related substance [4] of the same molecule?
A: 0.13%

Q: What about the Content (day 5, Illumination of 4500LX) of the same molecule?
A: 99.87%

Q: What about the Description (day 5, Illumination of 4500LX) of the same molecule?
A: White

Q: What about the Related substance (day 5, Illumination of 4500LX) of the same molecule?
A: 0.13%

Q: What about the Content (day 10, High humidity of 92.5%) of the same molecule?
A: 99.86%

Q: What about the Description (day 10, High humidity of 92.5%) of the same molecule?
A: White

Q: And the Related substance (day 10, High humidity of 92.5%)?
A: 0.14%

Q: And the Content [5]?
A: 99.85%

Q: What about the Description [5] of the same molecule?
A: White

Q: And the Related substance [5]?
A: 0.15%

Q: What about the Content (day 10, Illumination of 4500LX) of the same molecule?
A: 99.86%

Q: And the Description (day 10, Illumination of 4500LX)?
A: White

Q: What about the Related substance (day 10, Illumination of 4500LX) of the same molecule?
A: 0.14%

Q: What does the source list for “Posaconazole Phosphate Disodium Salt [Comparative Example 10]”?
A: Content ([1]; month 0): 99.87%; Description ([1]; month 0): White; Related substance ([1]; month 0): 0.13%; Content ([1]; month 1): 99.72%; Description ([1]; month 1): White; Related substance ([1]; month 1): 0.28%; Content ([1]; month 2): 99.60%; Description ([1]; month 2): White; Related substance ([1]; month 2): 0.40%; Content ([1]; month 3): 99.45%; Description ([1]; month 3): White; Related substance ([1]; month 3): 0.55%; Content ([1]; month 6): 99.34%; Description ([1]; month 6): White; Related substance ([1]; month 6): 0.66%; Content ([2]; month 0): 99.87%; Description ([2]; month 0): White; Related substance ([2]; month 0): 0.13%; Content ([2]; month 3): 99.72%; Description ([2]; month 3): White; Related substance ([2]; month 3): 0.28%; Content ([2]; month 6): 99.62%; Description ([2]; month 6): White; Related substance ([2]; month 6): 0.38%; Content ([2]; month 9): 99.57%; Description ([2]; month 9): White; Related substance ([2]; month 9): 0.43%; Content ([2]; month 12): 99.40%; Description ([2]; month 12): White; Related substance ([2]; month 12): 0.60%; Content ([2]; month 24): 98.84%; Description ([2]; month 24): White; Related substance ([2]; month 24): 1.16%; Hygroscopic weight gain [3]: 13.91%
